# Laboratory results as given in ChEMBL document CHEMBL5226308, “Amide-Amine Replacement in Indole-2-carboxamides Yields Potent Mycobactericidal Agents with Improved Water Solubility” (ACS Med Chem Lett, 2021).
# Calls of active or inactive are those of the source. No cut-off for these calls is given here.
# Columns and labels:
# [1] = system: Mycobacterium tuberculosis variant bovis; assay: Antimycobacterial activity against Mycobacterium bovis BCG ATCC 35734 assessed as inhibition of bacterial growth incubated for 5 days in 7H9 standard media by broth dilution method; format: functional; details: BCG ATCC 35734, 120 h, time 5 day
# [2] = system: Mycobacterium tuberculosis variant bovis; assay: Antimycobacterial activity against Mycobacterium bovis BCG ATCC 35734 assessed as inhibition of bacterial growth incubated for 5 days in 7H9 medium with omission of glycerol by broth dilution method; format: functional; details: BCG ATCC 35734, 120 h, time 5 day
# [3] = system: Mycobacterium tuberculosis variant bovis; assay: Antimycobacterial activity against Mycobacterium bovis BCG ATCC 35734 assessed as inhibition of bacterial growth incubated for 5 days in 7H9 medium with addition of 10% FBS by broth dilution method; format: functional; details: BCG ATCC 35734, 120 h, time 5 day
# [4] = system: Mycobacterium tuberculosis variant bovis; assay: Disruption of proton motive force in Mycobacterium bovis BCG ATCC 35734 assessed as loss in mitochondrial membrane potential by measuring decline in fluorescence ratio at 4XMIC90 measured after >=12 hrs by DiOC2 based fluorescence analysis; format: functional, organism-based
# [5] = system: Mycobacterium tuberculosis variant bovis; assay: Myco-bactericidal activity against Mycobacterium bovis BCG ATCC 35734 assessed as inhibition of bacterial colony formation incubated for 5 days by agar plate method; format: functional; details: BCG ATCC 35734, 120 h, time 5 day, read-out: MBC99.9
Compound,MIC90 [1] [µM],further results
O=C(NC1CCCCC1)c1cc2ccccc2[se]1,> 50,
Cc1cc(C)c2cc(C(=O)NC3CCCCCCC3)[nH]c2c1,0.04,
NC(=O)c1cc2ccccc2s1,> 50,
O=C(NC1CCCCCCC1)c1cc2ccc(Br)cc2[se]1,0.78,
COc1ccc2cc(C(=O)NC3CCCCCCC3)[nH]c2c1,1.1,
O=C(NC12CC3CC(CC(C3)C1)C2)c1cc2ccccc2[se]1,1,
COc1ccc2[nH]c(C(=O)NC3CCCCCCC3)cc2c1,0.65,
Brc1ccc2cc(CNC3CCCCCCC3)sc2c1,2.2,
O=C(NC1CCCCCCC1)c1cc2ccc(Br)cc2s1,0.8,
FC(F)(F)c1ccc2cc(CNC3CCCCCCC3)[se]c2c1,2,
c1ccc2sc(CNC3CCCCCC3)cc2c1,5,
O=C(NC1CCCCCC1)c1cc2ccc(C(F)(F)F)cc2[nH]1,0.21,
O=C(NC1CCCCCCC1)c1cc2ccc(Cl)cc2[nH]1,0.11,
c1ccc2[se]c(CNC34CC5CC(CC(C5)C3)C4)cc2c1,2.7,
FC(F)(F)c1ccc2cc(CNC3CCCCCCC3)sc2c1,0.78,
O=C(NC1CCCCC1)c1cc2ccccc2s1,> 50,
O=C(NC1CCCCCCC1)c1cc2ccc(O)cc2[nH]1,11,
O=C(NC1CCCCC1)c1cc2ccc(C(F)(F)F)cc2[nH]1,1.6,
O=C(NC1CCCCCC1)c1cc2ccccc2s1,3,
FC(F)(F)c1ccc2cc(CNC3CCCCCCC3)[nH]c2c1,0.08,MIC50 [1]: 0.04 µM; MIC50 [2]: 0.04 µM; MIC50 [3]: 0.07 µM; MIC90 [3]: 0.16 µM; Activity [4]: Active; MBC [5]: 0.16 µM

Compound,MIC90 [1] [µM],further results
FC(F)(F)c1ccc2cc(CNC3CCCCC3)[nH]c2c1,1.1,
O=C(NC1CCCCCCC1)c1cc2ccc(C(F)(F)F)cc2[se]1,1.8,
Fc1ccc2[nH]c(CNC3CCCCCCC3)cc2c1,0.33,
O=C(NC1CCCCCCC1)c1cc2ccc(F)cc2[nH]1,0.18,
c1ccc2sc(CNC3CCCCC3)cc2c1,> 45,
c1ccc(COc2ccc3[nH]c(CNC4CCCCCCC4)cc3c2)cc1,0.31,
Fc1ccc2cc(CNC3CCCCCCC3)[nH]c2c1,0.43,
O=C(NC1CCCCCCC1)c1cc2cc(O)ccc2[nH]1,48,
Clc1ccc2[nH]c(CNC3CCCCCCC3)cc2c1,0.22,
c1ccc2sc(CNC3CCCCCCC3)cc2c1,3.4,Activity [4]: Active
O=[N+]([O-])c1ccc2[nH]c(CNC3CCCCCCC3)cc2c1,0.69,
O=C(NC1CCCCCC1)c1cc2ccccc2[se]1,2.7,
O=C(NC1CCCCCCC1)c1cc2ccccc2[nH]1,0.52,
O=C(NC1CCCCCCC1)c1cc2cc(Cl)ccc2[nH]1,0.8,
O=C(NC1CCCCCCC1)c1cc2ccc(Br)cc2[nH]1,0.06,
Clc1ccc2cc(CNC3CCCCCCC3)[nH]c2c1,0.1,
O=C(NC1CCCCCCC1)c1cc2cc(Br)ccc2[nH]1,1.1,
COc1ccc2[nH]c(CNC3CCCCCCC3)cc2c1,1.5,
O=C(NC12CC3CC(CC(C3)C1)C2)c1cc2ccccc2s1,0.9,
c1ccc2[nH]c(CNC3CCCCCCC3)cc2c1,0.75,

Compound,MIC90 [1] [µM],further results
Cc1cc(C)c2cc(CNC3CCCCCCC3)[nH]c2c1,0.25,
c1ccc2[se]c(CNC3CCCCCCC3)cc2c1,2.1,Activity [4]: Active
Brc1ccc2cc(CNC3CCCCCCC3)[nH]c2c1,0.16,
Brc1ccc2cc(CNC3CCCCCCC3)[se]c2c1,0.54,
NNC(=O)c1ccncc1 [ISONIAZID],,MBC [5]: 10 µM
O=C(NC1CCCCCCC1)c1cc2cc(F)ccc2[nH]1,0.61,
O=C(NC1CCCCCCC1)c1cc2cc(OCc3ccccc3)ccc2[nH]1,0.17,
c1ccc2[se]c(CNC3CCCCCC3)cc2c1,5,
c1ccc2sc(CNC34CC5CC(CC(C5)C3)C4)cc2c1,3.6,
Brc1ccc2[nH]c(CNC3CCCCCCC3)cc2c1,0.74,
O=C(NC1CCCCCCC1)c1cc2cc([N+](=O)[O-])ccc2[nH]1,0.41,
O=C(NC1CCCCCCC1)c1cc2ccc(OCc3ccccc3)cc2[nH]1,0.07,
O=C(NC1CCCCCCC1)c1cc2ccccc2s1,0.5,Activity [4]: Active
COc1ccc2cc(CNC3CCCCCCC3)[nH]c2c1,1.2,
c1ccc2[se]c(CNC3CCCCC3)cc2c1,> 35,
O=C(NC1CCCCCCC1)c1cc2ccc(C(F)(F)F)cc2[nH]1,0.04,MIC50 [1]: 0.02 µM; MIC50 [2]: 0.01 µM; MIC50 [3]: 0.02 µM; MIC90 [3]: 0.08 µM; Activity [4]: Active; MBC [5]: 0.08 µM
O=C(NC1CCCCCCC1)c1cc2ccccc2[se]1,0.7,Activity [4]: Active
O=C(NC1CCCCCCC1)c1cc2ccc(C(F)(F)F)cc2s1,0.4,
